Literature values in patent US20110311626A1, “CONTROLLED RELEASE COMPOSITIONS COMPRISING ANTI-CHOLINERGIC DRUGS” (priority 2009, published 2011).

Conditions: currently marketed formulation, blood plasma, after administration

Tmax: 1.5 to 3 h
Structure (SMILES): CCN(CC)CCOC(=O)C1(C2CCCCC2)CCCCC1 [dicyclomine, bicyclohexyl-1-carboxylic acid, 2-(diethylamino) ethyl ester]
